A short description of series [1]: in vivo. On the set-up: species or system male rats of Donryu strain. The settings on record: rat, po, Concentration of 5-fluorouracil in blood. An excerpt: Ascites cells (5×10^6) of AH-130 are subcutaneously transplanted in the armpit portion of male rats of Donryu strain weighing about 200 g. Seven days thereafter, the rats with cancer cells weighing at least 2 g are used, five rats in each group.
Two, four and eight hours after the administration, the blood serum and cancer tissue homogenate are collected, each of which is acidified with hydrochloric acid and extracted with chloroform. The resulting aqueous layer is examined for antibiotic activity according to the thin-cup method (Media Circle, Vol. 92, p. 259, 1967) with use of Staphylococcus aureus 209P strain.

For series [2] the following is noted: background; cited from earlier work.
In series [3] the test system is AH-130. Briefly: Effects of Preparations 1 to 8 on AH-130 (Table 4). In kind it is in vivo, male Donryu rats. The settings on record: I.v.; Compd. 1 10 mg/kg, formulated as Preparation 6 but no uracil. An excerpt: (§1) Ascites cells (5×10^6) of AH-130, are subcutaneously transplanted in the armpit of male Donryu rats weighing about 200 g (ten rats in each group). […] Twenty-four hours after the transplantation and during the following seven consecutive days the suspension is orally given to the animal once every day at the dose listed in Table 2. On the 10th day after the transplantation, the tumor is removed from the body and weighed to calculate the average weight (T) of the tumors in the group to which the composition has been given and the corresponding weight (C) in the control group to determine the ratio T/C.
(4) Compositions formulated according to Preparations 1 to 8 given above are tested by the foregoing method for effects on AH-130.

Series [4] is described as follows: in vivo. In kind it is in vivo. The note with it: mouse, in vivo, po, mice, uracil (b)/(a) mol ratio 10, as amount of 5-fluorouracil (a). The procedure: (§2) (5) The anti-cancer compositions of this invention are tested in mice by the following methods to determine acute toxicity, therapeutic effect and theapeutic index.
(§3) Male mice of ICR strain weighing 22±1 g are used, 5 mice in each group. […] Over the following period of three weeks the mice are checked every day for poisoning, body weight and mortality. The LD50 is determined according to the up-and-down method 3 weeks after the administration.

A further series relates to mice. Description: in vivo. The note with it: oral, 30240 min. In kind it is in vivo. The procedure: as §2, §3
Series [5] deals with AH-130. Briefly: Anti-cancer effect (T/C) on subcutaneously transplanted AH-130, oral administration (Table 2). Format: in vivo, male Donryu rats. The note with it: for Anti-cancer effect (T/C): oral.
Text: (2) Determination of effects
as §1

Another series concerns sarcoma 180. Description: Therapeutic effect on sarcoma 180 transplanted in mice (Table 5). Format: in vivo, male mice of ICR strain. The note with it: oral, 14400 min. The procedure:
as §2
Tissues of sarcoma 180, 2×10^6, are subcutaneously transplanted in the back of male mice of ICR strain (6 mice in each group). […] Twenty-four hours after the transplantation and during the following seven consecutive days the suspension is orally given to the animal once every day.

The mark [6] stands for this setting: uracil (b)/(a) mol ratio 0, as amount of 5-fluorouracil (a).
Where [7] appears, read: uracil (b)/(a) mol ratio 2.5, as amount of 5-fluorouracil (a).

SMILES strings stand for the structures.

Here are results for one compound from patent publication US4481203A, “Composition containing 1-(n-hexylcarbamoyl)-5-fluorouracil and uracil” (priority 1977, dated 1984).

As usually defined, the LD50 is the dose at which mortality reaches 50%. By ED50 is commonly meant the midpoint of the dose-response relation.

In turn, `O=c1[nH]cc(F)c(=O)[nH]1` [Compound 1, 5-Fluorouracil] returned a concentration at 4 h in “in vivo [1]” of 20 ng/mL. In addition, in series [2], the “toxicity and side effects” value is “high toxicity and marked side effects”. Moreover, the “Anti-cancer effect (control) (T/C)” value in the series on AH-130 [3] was found to be 0.66. In “in vivo [4]”, the LD50 at 504 h was 97 mg/kg. The median lethal dose (LD50) in the series with mice (setting [6]) and in the series on mice (setting [7]) was 115 mg/kg each time. For the same compound, the response vs control in vivo at 80 µmol/kg in the series with AH-130 [5] (Rattus norvegicus, po, 240 h, read-out: Anti-cancer effect (T/C)) came to 69%. Also, the “Anti-cancer effect (T/C)” value in the series on AH-130 [5] (5-fluorouracil (a) 0.08 m.mol/kg + uracil 0.08 m.mol/kg) is given as 0.59; in the series with AH-130 [5] (5-fluorouracil (a) 0.08 m.mol/kg + uracil 0.16 m.mol/kg) it was 0.32. For the same compound, the 50% effective dose (ED50) with sarcoma 180 (setting [6]) was 18.5 mg/kg; with sarcoma 180 (setting [7]) it was 8.5 mg/kg; with sarcoma 180 (uracil (b)/(a) mol ratio 10, as amount of 5-fluorouracil (a)), 6.0 mg/kg.
